# Measurements published in ChEMBL document CHEMBL2177036, “Design and validation of bicyclic iminopyrimidinones as beta amyloid cleaving enzyme-1 (BACE1) inhibitors: conformational constraint to favor a bioactive conformation” (J Med Chem, 2012).
# What was measured:
# [1] = Intrinsic clearance in rat hepatocytes assessed per 10^6 cells; assay type: ADME, cell-based, Hepatocyte; conditions: read-out: CLH
# Brain = test: Free drug concentration in rat brain at 10 mg/kg, po at 6 hrs; assay type: ADME, organism-based; parameters: dose 10 mg/kg, route oral; conditions: in vivo
# [2] = Apparent permeability across human Caco2 cells; assay type: ADME, cell-based; conditions: Caco-2
# [3] = Ratio of drug uptake in brain to plasma in rat at 10 mg/kg, po at 6 hrs; assay type: ADME, organism-based; parameters: dose 10 mg/kg, route oral; conditions: read-out: BPR
# [4] = Drug uptake in rat brain at 10 mg/kg, po at 6 hrs; assay type: ADME, organism-based; parameters: dose 10 mg/kg, route oral; conditions: read-out: Drug uptake
# [5] = Cmax in rat at 10 mg/kg, po; assay type: ADME, organism-based; parameters: dose 10 mg/kg, route oral; conditions: in vivo
# [6] = Intrinsic clearance in human hepatocytes assessed per 10^6 cells; assay type: ADME, cell-based, Hepatocyte; conditions: read-out: CLH
# [7] = AUC (0 to 24 hrs) in rat at 10 mg/kg po; assay type: ADME, organism-based; parameters: time < 24 hr, dose 10 mg/kg, route oral; conditions: plasma
# [8] = Oral bioavailability in rat at 10 mg/kg; assay type: ADME, organism-based; conditions: in vivo
# [9] = Intrinsic clearance in cynomolgus monkey hepatocytes assessed per 10^6 cells; assay type: ADME, cell-based, Macaca fascicularis, Hepatocyte; conditions: read-out: CLH
# [10] = AUC (0 to 6 hrs) in rat at 10 mg/kg po; assay type: ADME, organism-based; parameters: time < 6 hr, dose 10 mg/kg, route oral; conditions: plasma
# [11] = Cmax in rat at 10 mg/kg, po at 1 hr; assay type: ADME, organism-based; parameters: dose 10 mg/kg, route oral; conditions: in vivo
# [12] = Plasma concentration in rat at 10 mg/kg, po at 6 hrs; assay type: ADME, organism-based; parameters: dose 10 mg/kg, route oral
# [13] = Clearance in rat hepatocytes assessed per 10^6 cells; assay type: ADME, cell-based, Hepatocyte; conditions: read-out: CLH
Compound,Drug uptake(free) (Brain) [nM],Kp at 6 h [3],concentration at 6 h [4] [nM],AUC(0-t) at 6 h [10] [µM·h],other results
CC#Cc1cncc(-c2csc([C@]34CN(c5cccc(OC(C)C)c5)C[C@H]3C(=O)N(C)C(N)=N4)c2)c1,–,–,–,3.7,–
CN1C(=O)[C@@H]2CN(C(=O)c3ccccc3)C[C@]2(c2cc(-c3cccc(C#N)c3)cs2)N=C1N,–,–,–,0.024,–
CN1C(=N)N[C@@]2(c3cc(-c4ccc(F)c(C#N)c4)cs3)CN(C(=O)c3cccc(F)c3)C[C@H]2C1=O,–,–,–,0.3,hepatocyte CLint [13]: 46 µL/min/1e6 cells
CC#Cc1cncc(-c2csc([C@]34CN(C(=O)c5cccc(F)c5)C[C@H]3C(=O)N(C)C(N)=N4)c2)c1,–,–,–,0.3,–

# The next lines start with results.
Drug uptake(free) (Brain) [nM],Kp at 6 h [3],concentration at 6 h [4] [nM],AUC(0-t) at 6 h [10] [µM·h],Compound,other results
11,0.1,463,31,CN1C(=N)N[C@@]2(c3cc(-c4cccc(C#N)c4)cs3)CN(c3ncc(F)cn3)C[C@H]2C1=O,hepatocyte CLint [1]: 13.5 µL/min/1e6 cells; Papp [2]: 15.1 ×10⁻⁶ cm/s; Cmax [5]: 6100 nM; hepatocyte CLint [6]: 2 µL/min/1e6 cells; AUC(0-t) at 24 h [7]: 31 µM·h; bioavailability [8]: 97%; hepatocyte CLint [9]: 5.7 µL/min/1e6 cells
4,0.1,965,90,CN1C(=N)N[C@@]2(c3cc(-c4cccc(C#N)c4)cs3)CN(c3ncc(Cl)cn3)C[C@H]2C1=O,–
–,< 0.1,232,111,Cc1cnc(N2C[C@H]3C(=O)N(C)C(=N)N[C@@]3(c3cc(-c4cccc(C#N)c4)cs3)C2)nc1,–
1,1,58,2,CN1C(=O)[C@@H]2CN(c3ncccn3)C[C@]2(c2cc(-c3cccc(C#N)c3)cs2)N=C1N,Cmax [11]: 1000 nM; concentration at 6 h [12]: 60 nM
